From patent US10160747B2, “Compounds and methods for kinase modulation, and indications therefor” (Plexxikon Inc., priority 2016, dated 2018)

Key:
Assay type in all cases: biochemical
FLT3-D835Y = biological target: T1, FLT3-D835Y (Homo sapiens, UniProt P36888, D835Y); test: FLT3-D835Y recombinant enzyme kinase assay (AlphaScreen); conditions: 8 pt, GMean
T1 construct: purchased Invitrogen PV3967
T1 sequence (P36888 27-993 D835Y): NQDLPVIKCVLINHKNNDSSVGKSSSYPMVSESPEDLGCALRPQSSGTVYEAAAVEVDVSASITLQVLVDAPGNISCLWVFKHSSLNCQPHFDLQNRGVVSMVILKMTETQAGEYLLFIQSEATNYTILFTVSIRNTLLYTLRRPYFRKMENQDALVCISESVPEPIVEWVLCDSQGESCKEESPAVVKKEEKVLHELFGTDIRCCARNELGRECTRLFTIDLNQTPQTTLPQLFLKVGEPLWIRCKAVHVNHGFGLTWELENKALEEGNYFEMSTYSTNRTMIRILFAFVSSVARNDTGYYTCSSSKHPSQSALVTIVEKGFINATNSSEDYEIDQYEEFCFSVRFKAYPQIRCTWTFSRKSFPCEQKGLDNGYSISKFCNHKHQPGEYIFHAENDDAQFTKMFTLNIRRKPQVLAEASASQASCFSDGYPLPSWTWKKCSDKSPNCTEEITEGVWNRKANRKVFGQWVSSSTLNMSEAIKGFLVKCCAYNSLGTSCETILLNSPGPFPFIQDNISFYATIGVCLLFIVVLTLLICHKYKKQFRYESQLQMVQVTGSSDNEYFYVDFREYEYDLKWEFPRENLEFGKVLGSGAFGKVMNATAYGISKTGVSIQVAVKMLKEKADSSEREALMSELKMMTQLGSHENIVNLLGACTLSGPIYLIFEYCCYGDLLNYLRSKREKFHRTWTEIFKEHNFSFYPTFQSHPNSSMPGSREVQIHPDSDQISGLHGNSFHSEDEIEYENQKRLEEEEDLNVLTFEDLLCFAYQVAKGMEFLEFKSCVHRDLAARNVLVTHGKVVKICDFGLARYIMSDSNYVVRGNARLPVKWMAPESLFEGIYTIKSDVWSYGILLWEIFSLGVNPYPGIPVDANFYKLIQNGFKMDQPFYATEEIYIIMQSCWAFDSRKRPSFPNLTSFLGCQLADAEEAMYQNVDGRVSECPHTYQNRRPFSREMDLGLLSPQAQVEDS
Procedure, shortened: (§1)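 Kinase activity of recombinant FLT3-ITD, FLT3-D835Y and c-KIT was followed via phosphotyrosine formation on a 30 nM biotin-peptide substrate, captured on streptavidin donor and anti-phosphotyrosine acceptor AlphaScreen beads. ATP was set at 10 μM for FLT3 and 100 μM for c-KIT.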

c-KIT = biological target: T2, c-KIT (Homo sapiens, UniProt P10721); test: c-KIT recombinant enzyme kinase assay (AlphaScreen); conditions: 100 ATP, 8 pt
T2 construct: purchased Millipore 14-559K
T2 sequence (P10721 26-976): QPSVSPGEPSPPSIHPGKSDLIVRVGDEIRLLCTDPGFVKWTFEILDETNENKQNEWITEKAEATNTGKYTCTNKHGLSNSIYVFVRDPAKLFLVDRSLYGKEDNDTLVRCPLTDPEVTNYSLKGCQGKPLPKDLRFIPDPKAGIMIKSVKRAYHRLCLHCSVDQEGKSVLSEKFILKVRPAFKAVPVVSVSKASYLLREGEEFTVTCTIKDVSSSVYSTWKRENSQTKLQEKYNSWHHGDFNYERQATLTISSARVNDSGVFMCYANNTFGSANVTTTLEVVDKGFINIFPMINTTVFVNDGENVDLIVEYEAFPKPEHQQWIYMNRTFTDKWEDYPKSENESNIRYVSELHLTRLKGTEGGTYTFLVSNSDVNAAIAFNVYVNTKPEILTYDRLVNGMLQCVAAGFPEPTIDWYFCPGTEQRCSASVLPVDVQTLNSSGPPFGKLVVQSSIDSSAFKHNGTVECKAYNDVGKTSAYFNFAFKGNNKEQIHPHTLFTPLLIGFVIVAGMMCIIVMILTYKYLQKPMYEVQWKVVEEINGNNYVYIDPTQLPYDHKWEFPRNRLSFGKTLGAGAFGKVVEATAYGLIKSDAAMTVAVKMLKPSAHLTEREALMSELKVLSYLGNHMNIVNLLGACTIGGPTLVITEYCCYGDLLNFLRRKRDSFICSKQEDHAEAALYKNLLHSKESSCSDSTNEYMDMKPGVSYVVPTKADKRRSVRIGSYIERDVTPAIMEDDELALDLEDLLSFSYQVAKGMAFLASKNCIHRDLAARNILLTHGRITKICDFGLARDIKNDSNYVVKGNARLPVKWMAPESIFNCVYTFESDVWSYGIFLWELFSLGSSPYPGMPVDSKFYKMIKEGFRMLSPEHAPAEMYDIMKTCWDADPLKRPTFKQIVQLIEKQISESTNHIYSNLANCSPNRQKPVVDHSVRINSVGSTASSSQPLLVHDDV
Procedure, shortened: as §1

FLT3-ITD = biological target: T3, FLT3-ITD (Homo sapiens, UniProt P36888); test: FLT3-ITD recombinant enzyme kinase assay (AlphaScreen); conditions: 8 pt; read-out: FLT3_ITD 8 pt: IC50
T3 sequence (P36888 1-993): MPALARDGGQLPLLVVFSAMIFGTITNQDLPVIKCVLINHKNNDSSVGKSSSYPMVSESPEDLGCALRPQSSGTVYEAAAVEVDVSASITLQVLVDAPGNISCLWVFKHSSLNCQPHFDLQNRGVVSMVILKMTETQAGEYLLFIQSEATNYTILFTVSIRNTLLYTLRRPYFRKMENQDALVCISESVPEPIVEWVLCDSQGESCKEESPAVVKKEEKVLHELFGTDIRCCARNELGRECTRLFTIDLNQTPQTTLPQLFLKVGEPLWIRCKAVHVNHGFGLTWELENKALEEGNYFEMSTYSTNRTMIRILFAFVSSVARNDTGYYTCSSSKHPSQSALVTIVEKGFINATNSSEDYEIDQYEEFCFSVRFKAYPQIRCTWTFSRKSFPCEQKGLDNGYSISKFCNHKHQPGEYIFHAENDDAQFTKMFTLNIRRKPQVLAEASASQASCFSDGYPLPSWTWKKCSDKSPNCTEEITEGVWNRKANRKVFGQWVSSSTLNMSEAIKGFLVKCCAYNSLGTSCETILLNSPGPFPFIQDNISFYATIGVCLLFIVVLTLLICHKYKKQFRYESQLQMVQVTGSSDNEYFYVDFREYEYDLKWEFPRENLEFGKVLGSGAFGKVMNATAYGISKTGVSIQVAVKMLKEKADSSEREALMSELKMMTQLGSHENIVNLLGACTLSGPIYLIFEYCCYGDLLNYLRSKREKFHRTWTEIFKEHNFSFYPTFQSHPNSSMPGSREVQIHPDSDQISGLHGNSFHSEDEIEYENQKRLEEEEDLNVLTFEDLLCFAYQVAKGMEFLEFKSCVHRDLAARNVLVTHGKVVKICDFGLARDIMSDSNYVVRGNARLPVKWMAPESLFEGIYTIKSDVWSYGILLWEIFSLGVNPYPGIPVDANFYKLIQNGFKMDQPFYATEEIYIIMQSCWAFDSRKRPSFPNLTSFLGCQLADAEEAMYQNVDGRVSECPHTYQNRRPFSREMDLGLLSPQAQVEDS
Procedure, shortened: as §1

Row | IC50 (FLT3-D835Y) | IC50 (c-KIT) | IC50 (FLT3-ITD) | SMILES
1 | 0.0001 to 10 µM | 0.0001 to 10 µM | 0.0001 to 10 µM | O=C(Cc1ccc(-c2cnc3[nH]c(-c4ccc(N5CCOCC5)nc4)cc3c2)cn1)Nc1ccnc(C(F)(F)F)c1 [Compound P-0183, 2-[5-[2-(6-morpholino-3-pyridyl)-1H-pyrrolo[2,3-b]pyridin-5-yl]-2-pyridyl]-N-[2-(trifluoromethyl)-4-pyridyl]acetamide]
2 | 0.0001 to 10 µM | 0.0001 to 10 µM | 0.0001 to 10 µM | N#Cc1cc(-c2cc3cc(-c4ccc(CC(=O)Nc5cc(C(F)(F)F)ccn5)cc4F)cnc3[nH]2)ccn1 [Compound P-0194, 2-[4-[2-(2-cyano-4-pyridyl)-1H-pyrrolo[2,3-b]pyridin-5-yl]-3-fluoro-phenyl]-N-[4-(trifluoromethyl)-2-pyridyl]acetamide]
3 | 0.0001 to 10 µM | 0.0001 to 10 µM | 0.0001 to 10 µM | N#Cc1ccc(-c2cc3cc(-c4ccc(CC(=O)Nc5cncc(C(F)(F)F)c5)cc4F)cnc3[nH]2)cn1 [Compound P-0195, 2-[4-[2-(6-cyano-3-pyridyl)-1H-pyrrolo[2,3-b]pyridin-5-yl]-3-fluoro-phenyl]-N-[5-(trifluoromethyl)-3-pyridyl]acetamide]
4 | 0.0001 to 10 µM | 0.0001 to 10 µM | 0.0001 to 10 µM | COc1ccc(-c2cc3cc(-c4ccc(CC(=O)Nc5cncc(C(F)(F)F)c5)cc4F)cnc3[nH]2)cn1 [Compound P-0196, 2-[3-fluoro-4-[2-(6-methoxy-3-pyridyl)-1H-pyrrolo[2,3-b]pyridin-5-yl]phenyl]-N-[5-(trifluoromethyl)-3-pyridyl]acetamide]
5 | 0.0001 to 10 µM | 0.0001 to 10 µM | 0.0001 to 10 µM | O=C(Cc1ccc(-c2cnc3[nH]c(-c4ccc(N5CCOCC5)nc4)cc3c2)c(F)c1)Nc1cncc(C(F)(F)F)c1 [Compound P-0198, 2-[3-fluoro-4-[2-(6-morpholino-3-pyridyl)-1H-pyrrolo[2,3-b]pyridin-5-yl]phenyl]-N-[5-(trifluoromethyl)-3-pyridyl]acetamide]

More lines, now with the values behind:

Row | SMILES | IC50 (FLT3-D835Y) | IC50 (c-KIT) | IC50 (FLT3-ITD)
6 | COc1ncc(NC(=O)Cc2cc(F)c(-c3cnc4[nH]nc(C)c4c3)cc2F)cc1C(F)(F)F [Compound P-0176, 2-[2,5-difluoro-4-(3-methyl-1H-pyrazolo[3,4-b]pyridin-5-yl)phenyl]-N-[6-methoxy-5-(trifluoromethyl)-3-pyridyl]acetamide] | 0.0001 to 10 µM | 0.0001 to 10 µM | 0.0001 to 10 µM
7 | Cc1n[nH]c2ncc(-c3ccc(CC(=O)Nc4cncc(C(F)(F)F)c4)cc3F)cc12 [Compound P-0177, 2-[3-fluoro-4-(3-methyl-1H-pyrazolo[3,4-b]pyridin-5-yl)phenyl]-N-[5-(trifluoromethyl)-3-pyridyl]acetamide] | 0.0001 to 10 µM | 0.0001 to 10 µM | 0.0001 to 10 µM
8 | COCCn1cc(Nc2ncc(-c3ccc(CC(=O)Nc4cncc(C(F)(F)F)c4)cc3)cn2)cn1 [Compound P-0178, 2-[4-[2-[[1-(2-methoxyethyl)pyrazol-4-yl]amino]pyrimidin-5-yl]phenyl]-N-[5-(trifluoromethyl)-3-pyridyl]acetamide] | 0.0001 to 10 µM | 0.0001 to 10 µM | 0.0001 to 10 µM
9 | COCCn1cc(Nc2ncc(-c3ccc(CC(=O)Nc4cnc(C)c(C(F)(F)F)c4)cc3)cn2)cn1 [Compound P-0179, 2-[4-[2-[[1-(2-methoxyethyl)pyrazol-4-yl]amino]pyrimidin-5-yl]phenyl]-N-[6-methyl-5-(trifluoromethyl)-3-pyridyl]acetamide] | 0.0001 to 10 µM | 0.0001 to 10 µM | 0.0001 to 10 µM
10 | COc1nn(C[C@H](C)O)cc1Nc1ncc(-c2ccc(CC(=O)Nc3cnc(C)c(C(F)(F)F)c3)cc2)cn1 [Compound P-0180, 2-[4-[2-[[1-[(2S)-2-hydroxypropyl]-3-methoxy-pyrazol-4-yl]amino]pyrimidin-5-yl]phenyl]-N-[6-methyl-5-(trifluoromethyl)-3-pyridyl]acetamide] | 0.0001 to 10 µM | 0.0001 to 10 µM | 0.0001 to 10 µM
11 | O=C(Cc1ccc(-c2cnc3[nH]c(-c4ccnc(N5CCOCC5)c4)cc3c2)cn1)Nc1ccnc(C(F)(F)F)c1 [Compound P-0181, 2-[5-[2-(2-morpholino-4-pyridyl)-1H-pyrrolo[2,3-b]pyridin-5-yl]-2-pyridyl]-N-[2-(trifluoromethyl)-4-pyridyl]acetamide] | 0.0001 to 10 µM | 0.0001 to 10 µM | 0.0001 to 10 µM
12 | N#Cc1cc(-c2cc3cc(-c4ccc(CC(=O)Nc5ccnc(C(F)(F)F)c5)nc4)cnc3[nH]2)ccn1 [Compound P-0182, 2-[5-[2-(2-cyano-4-pyridyl)-1H-pyrrolo[2,3-b]pyridin-5-yl]-2-pyridyl]-N-[2-(trifluoromethyl)-4-pyridyl]acetamide] | 0.0001 to 10 µM | 0.0001 to 10 µM | 0.0001 to 10 µM
